Laboratory results: patent publication US6376497B1, “Antifungal azole derivatives having a fluorinated vinyl group and process for preparing same” (Korea Research Institute of Chemical Technology, priority 1999, dated 2002)

Experiments:
Assay in all cases: In vitro antifungal activity, microbroth dilution MIC
Type in all cases: cell-based
[1] = test system: Trichophyton mentagrophytes A. 9129; conditions: RPMI-1640, 35° C., no growth observed
Procedure, shortened: (§1)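 Broth microdilution adapted from NCCLS M27, in RPMI-1640 with 0.165 M MOPS, pH 7.0. Yeast or mould inoculum at 2×10^3 CFU/ml was mixed 1:1 with DMSO-derived compound solutions (200 to 0.10 μg/ml before mixing) and incubated at 35 °C for 4 to 48 h. MIC was the concentration showing no growth.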

[2] = test system: Torulopsis glabrata B. 16205; conditions: RPMI-1640, 35° C., 4 to 48 hours, no growth observed
Procedure, shortened: as §1

[3] = test system: Cryptococcus neoformans IFM. 40092; conditions: RPMI-1640, 35° C., no growth observed
Procedure, shortened: as §1

[4] = test system: Candida albicans A. 10231; conditions: RPMI-1640, 35° C., 4 to 48 hours, no growth observed
Procedure, shortened: as §1

[5] = test system: Candida parapsitosis A. 7330; conditions: RPMI-1640, 35° C., 4 to 48 hours, no growth observed
Procedure, shortened: as §1

[6] = test system: Cryptococcus neoformans B. 42419; conditions: RPMI-1640, 35° C., 4 to 48 hours, no growth observed
Procedure, shortened: as §1

[7] = test system: Candida pseudotropicalis K. 11658; conditions: RPMI-1640, 35° C., 4 to 48 hours, no growth observed
Procedure, shortened: as §1

[8] = test system: Aspergillus niger A. 16404; conditions: RPMI-1640, 35° C., no growth observed
Procedure, shortened: as §1

[9] = test system: Aspergillus furnigatus B. 19119; conditions: RPMI-1640, 35° C., no growth observed
Procedure, shortened: as §1

[10] = test system: Cryptococcus neoformans A. 34144; conditions: RPMI-1640, 35° C., no growth observed
Procedure, shortened: as §1

[11] = test system: Trichophyton mentagrophytes B. 32663; conditions: RPMI-1640, 35° C., no growth observed
Procedure, shortened: as §1

[12] = test system: Candida albicans C1-2; conditions: RPMI-1640, 35° C., 4 to 48 hours, no growth observed
Procedure, shortened: as §1

[13] = test system: Candida krusei K. 11655; conditions: RPMI-1640, 35° C., 4 to 48 hours, no growth observed
Procedure, shortened: as §1

[14] = test system: Candida tropicalis A. 13803; conditions: RPMI-1640, 35° C., 4 to 48 hours, no growth observed
Procedure, shortened: as §1

[15] = test system: Candida albicans IFO. 1385; conditions: RPMI-1640, 35° C., 4 to 48 hours, no growth observed
Procedure, shortened: as §1

Question: `COc1ccc(C(=C(F)N2CCN(c3ccc(OCC4COC(Cn5ccnc5)(c5ccc(F)cc5F)O4)cc3)CC2)C(F)(F)F)cc1` (mixture of isomers) [Ex. 144] was tested. Which “Minimal inhibitory concentration(MIC), T. mentagrophytes A. 9129” value [1] did it give?
Answer: 12.5 mg/L

Question: And the “Minimal inhibitory concentration(MIC), T. glabrata B. 16205” value [2]?
Answer: >100 mg/L

Question: And the “Minimal inhibitory concentration(MIC), Cry. neoformans IFM. 40092” value [3]?
Answer: 0.39 mg/L

Question: What about the “Minimal inhibitory concentration(MIC), C. albicans A. 10231” value [4] of the same compound?
Answer: >100 mg/L

Question: What about the “Minimal inhibitory concentration(MIC), C. parapsitosis A. 7330” value [5] of the same compound?
Answer: 3.13 mg/L

Question: And the “Minimal inhibitory concentration(MIC), Cry. neoformans B. 42419” value [6]?
Answer: 0.39 mg/L

Question: What about the “Minimal inhibitory concentration(MIC), C. pseudotropicalis K. 11658” value [7] of the same compound?
Answer: 1.56 mg/L

Question: And the “Minimal inhibitory concentration(MIC), A. niger A. 16404” value [8]?
Answer: >100 mg/L

Question: And the “Minimal inhibitory concentration(MIC), A furnigatus B. 19119” value [9]?
Answer: 100 mg/L

Question: And the “Minimal inhibitory concentration(MIC), Cry. neoformans A. 34144” value [10]?
Answer: 3.13 mg/L

Question: What about the “Minimal inhibitory concentration(MIC), T. mentagrophytes B. 32663” value [11] of the same compound?
Answer: 1.56 mg/L

Question: And the “Minimal inhibitory concentration(MIC), C. albicans C1-2” value [12]?
Answer: >100 mg/L

Question: What about the “Minimal inhibitory concentration(MIC), C. krusei K. 11655” value [13] of the same compound?
Answer: 6.25 mg/L

Question: What about the “Minimal inhibitory concentration(MIC), C. tropicalis A. 13803” value [14] of the same compound?
Answer: >100 mg/L

Question: What about the “Minimal inhibitory concentration(MIC), C. albicans IFO. 1385” value [15] of the same compound?
Answer: 0.39 mg/L

Question: What does the source list for `FC(=C(c1ccc2c(c1)OCO2)C(F)(F)F)N1CCN(c2ccc(OCC3COC(Cn4ccnc4)(c4ccc(F)cc4F)O3)cc2)CC1` (mixture of isomers) [Ex. 145]?
Answer: Minimal inhibitory concentration(MIC), T. mentagrophytes A. 9129 [1]: 6.25 mg/L; Minimal inhibitory concentration(MIC), T. glabrata B. 16205 [2]: 100 mg/L; Minimal inhibitory concentration(MIC), Cry. neoformans IFM. 40092 [3]: 0.78 mg/L; Minimal inhibitory concentration(MIC), C. albicans A. 10231 [4]: >100 mg/L; Minimal inhibitory concentration(MIC), C. parapsitosis A. 7330 [5]: 3.13 mg/L; Minimal inhibitory concentration(MIC), Cry. neoformans B. 42419 [6]: 0.78 mg/L; Minimal inhibitory concentration(MIC), C. pseudotropicalis K. 11658 [7]: 3.13 mg/L; Minimal inhibitory concentration(MIC), A. niger A. 16404 [8]: 100 mg/L; Minimal inhibitory concentration(MIC), A furnigatus B. 19119 [9]: 100 mg/L; Minimal inhibitory concentration(MIC), Cry. neoformans A. 34144 [10]: 3.13 mg/L; Minimal inhibitory concentration(MIC), T. mentagrophytes B. 32663 [11]: 1.56 mg/L; Minimal inhibitory concentration(MIC), C. albicans C1-2 [12]: >100 mg/L; Minimal inhibitory concentration(MIC), C. krusei K. 11655 [13]: 1.56 mg/L; Minimal inhibitory concentration(MIC), C. tropicalis A. 13803 [14]: >100 mg/L; Minimal inhibitory concentration(MIC), C. albicans IFO. 1385 [15]: 0.78 mg/L

Question: What does the source list for `FC(=C(c1ccc(Oc2ccccc2)cc1)C(F)(F)F)N1CCN(c2ccc(OCC3COC(Cn4ccnc4)(c4ccc(F)cc4F)O3)cc2)CC1` (mixture of isomers) [Ex. 146]?
Answer: Minimal inhibitory concentration(MIC), T. mentagrophytes A. 9129 [1]: 12.5 mg/L; Minimal inhibitory concentration(MIC), T. glabrata B. 16205 [2]: 100 mg/L; Minimal inhibitory concentration(MIC), Cry. neoformans IFM. 40092 [3]: 0.78 mg/L; Minimal inhibitory concentration(MIC), C. albicans A. 10231 [4]: >100 mg/L; Minimal inhibitory concentration(MIC), C. parapsitosis A. 7330 [5]: 1.56 mg/L; Minimal inhibitory concentration(MIC), Cry. neoformans B. 42419 [6]: 0.78 mg/L; Minimal inhibitory concentration(MIC), C. pseudotropicalis K. 11658 [7]: 0.39 mg/L; Minimal inhibitory concentration(MIC), A. niger A. 16404 [8]: 100 mg/L; Minimal inhibitory concentration(MIC), A furnigatus B. 19119 [9]: 100 mg/L; Minimal inhibitory concentration(MIC), Cry. neoformans A. 34144 [10]: 1.56 mg/L; Minimal inhibitory concentration(MIC), T. mentagrophytes B. 32663 [11]: 1.56 mg/L; Minimal inhibitory concentration(MIC), C. albicans C1-2 [12]: >100 mg/L; Minimal inhibitory concentration(MIC), C. krusei K. 11655 [13]: 0.78 mg/L; Minimal inhibitory concentration(MIC), C. tropicalis A. 13803 [14]: >100 mg/L; Minimal inhibitory concentration(MIC), C. albicans IFO. 1385 [15]: 0.78 mg/L

Question: With `FC(=C(c1cccc(F)c1)C(F)(F)F)N1CCN(c2ccc(OCC3COC(Cn4ccnc4)(c4ccc(F)cc4F)O3)cc2)CC1` (mixture of isomers) [Ex. 147] as the compound, how does the “Minimal inhibitory concentration(MIC), T. mentagrophytes A. 9129” value [1] read?
Answer: 3.13 mg/L

Question: What about the “Minimal inhibitory concentration(MIC), T. glabrata B. 16205” value [2] of the same compound?
Answer: 50.0 mg/L

Question: And the “Minimal inhibitory concentration(MIC), Cry. neoformans IFM. 40092” value [3]?
Answer: ≦0.10 μg/ml

Question: And the “Minimal inhibitory concentration(MIC), C. albicans A. 10231” value [4]?
Answer: >100 mg/L

Question: And the “Minimal inhibitory concentration(MIC), C. parapsitosis A. 7330” value [5]?
Answer: 0.78 mg/L

Question: What about the “Minimal inhibitory concentration(MIC), Cry. neoformans B. 42419” value [6] of the same compound?
Answer: 0.78 mg/L

Question: And the “Minimal inhibitory concentration(MIC), C. pseudotropicalis K. 11658” value [7]?
Answer: 0.39 mg/L

Question: What about the “Minimal inhibitory concentration(MIC), A. niger A. 16404” value [8] of the same compound?
Answer: 100 mg/L

Question: And the “Minimal inhibitory concentration(MIC), A furnigatus B. 19119” value [9]?
Answer: 12.5 mg/L

Question: And the “Minimal inhibitory concentration(MIC), Cry. neoformans A. 34144” value [10]?
Answer: 0.78 mg/L

Question: And the “Minimal inhibitory concentration(MIC), T. mentagrophytes B. 32663” value [11]?
Answer: ≦0.10 μg/ml

Question: What about the “Minimal inhibitory concentration(MIC), C. albicans C1-2” value [12] of the same compound?
Answer: >100 mg/L

Question: And the “Minimal inhibitory concentration(MIC), C. krusei K. 11655” value [13]?
Answer: 0.39 mg/L

Question: And the “Minimal inhibitory concentration(MIC), C. tropicalis A. 13803” value [14]?
Answer: >100 mg/L

Question: And the “Minimal inhibitory concentration(MIC), C. albicans IFO. 1385” value [15]?
Answer: 0.78 mg/L
